Laboratory results: patent US11685732B2, “MYST family histone acetyltransferase inhibitors” (Epizyme, Inc., priority 2017, dated 2023)
pIC50: −log10 of the molar value. Read-outs that look alike come from different tables or passages of the source.

Experiments:
KAT-5 = KAT-5 (Homo sapiens (Human), UniProt Q92993); experiment: KAT-5 biochemical inhibition assay (SAMDI mass spectrometry)
Summary of the method: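 Acetylation of 1 μM peptide by 9 nM enzyme with 0.5 μM acetyl-CoA (final) was run 90 min at 25° C in Tris pH 8.0 buffer with DTT, after compound preincubation at 2% DMSO. Formic acid stopped the reaction, and product was quantified by SAMDI mass spectrometry to derive IC50.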

KAT-6A = KAT-6A (Homo sapiens (Human), UniProt Q92794); experiment: KAT-6A biochemical inhibition assay (SAMDI mass spectrometry)
Summary of the method: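 IC50 values came from SAMDI time-of-flight mass spectrometry after formic acid quench (0.5% final). Acetylation ran 90 min at 25 °C with 1 μM acetyl coenzyme A and 1 μM peptide substrate, following compound pre-incubation with 12.5 nM KAT-6A in Tris buffer pH 8.0 containing DTT, 2% DMSO final.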

KAT-7 = KAT-7 (Homo sapiens (Human), UniProt O95251); experiment: KAT-7 biochemical inhibition assay (SAMDI mass spectrometry)
Protocol: (§1) KAT-7. Enzyme assay buffer was 50 mM Tris pH 8.0, 0.002% Tween20, 0.005% bovine skin gelatin, and 1 mM dithiothreitol (DTT). For determination of IC50 values, compounds were serially diluted with 2% (v/v) DMSO in the final reaction, pre-incubating each dilution of each compound with 40 μL of assay buffer containing KAT-7 enzyme (6 nM final concentration). 10 μL of assay buffer containing 1 μM peptide substrate and 2 μM acetyl coenzyme A (final concentrations) was added. Reactions (50 μL total) were then carried out at 25° C. for 120 minutes. Reactions were terminated by the addition of 0.5% formic acid (final concentration), and a sample of each reaction was analyzed by SAMDI Tech, Inc. (Chicago, Ill.) using self-assembled monolayer desorption/ionization time-of-flight mass spectrometry (Mrksich, M. (2008) Mass spectrometry of self-assembled monolayers: a new tool for molecular surface science. ACS Nano 2, 7-18).

KAT-8 = KAT-8 (Homo sapiens (Human), UniProt Q9H7Z6); experiment: KAT-8 biochemical inhibition assay (SAMDI mass spectrometry)
Protocol: as §1, with “KAT-8. Enzyme” for “KAT-7. Enzyme”, “containing KAT-8” for “containing KAT-7”, “enzyme (12.5” for “enzyme (6”, “and 5” for “and 2”, “for 90” for “for 120”

Sequence of KAT-5 (Q92993 other isoform, or with tags, fused parts or gaps): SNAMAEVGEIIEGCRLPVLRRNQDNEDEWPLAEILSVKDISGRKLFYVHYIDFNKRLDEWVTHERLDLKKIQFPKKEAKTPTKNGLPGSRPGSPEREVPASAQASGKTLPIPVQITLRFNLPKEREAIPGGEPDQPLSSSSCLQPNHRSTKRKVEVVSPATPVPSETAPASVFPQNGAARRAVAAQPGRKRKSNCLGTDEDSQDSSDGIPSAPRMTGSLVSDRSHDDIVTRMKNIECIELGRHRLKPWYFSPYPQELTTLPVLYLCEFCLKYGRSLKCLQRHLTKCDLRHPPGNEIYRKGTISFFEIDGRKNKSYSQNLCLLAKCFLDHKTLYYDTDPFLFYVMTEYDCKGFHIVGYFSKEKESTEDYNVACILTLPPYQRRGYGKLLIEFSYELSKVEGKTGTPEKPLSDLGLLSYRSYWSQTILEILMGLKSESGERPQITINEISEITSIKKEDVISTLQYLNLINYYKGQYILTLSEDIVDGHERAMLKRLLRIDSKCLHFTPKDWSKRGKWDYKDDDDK
Sequence of KAT-8 (Q9H7Z6 other isoform, or with tags, fused parts or gaps): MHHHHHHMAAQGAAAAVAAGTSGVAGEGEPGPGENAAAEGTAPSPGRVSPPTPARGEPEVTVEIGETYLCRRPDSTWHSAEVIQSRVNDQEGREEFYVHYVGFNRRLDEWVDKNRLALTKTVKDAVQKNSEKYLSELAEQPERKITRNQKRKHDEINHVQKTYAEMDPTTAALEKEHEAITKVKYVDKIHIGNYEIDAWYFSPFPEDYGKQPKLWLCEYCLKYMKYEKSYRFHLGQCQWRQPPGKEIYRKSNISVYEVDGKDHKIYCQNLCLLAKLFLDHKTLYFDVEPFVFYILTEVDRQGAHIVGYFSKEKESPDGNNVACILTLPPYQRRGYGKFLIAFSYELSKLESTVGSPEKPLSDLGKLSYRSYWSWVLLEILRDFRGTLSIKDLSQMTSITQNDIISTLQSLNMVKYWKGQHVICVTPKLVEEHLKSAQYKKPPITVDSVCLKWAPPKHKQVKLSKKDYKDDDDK
Sequence of KAT-6A (Q92794 other isoform, or with tags, fused parts or gaps): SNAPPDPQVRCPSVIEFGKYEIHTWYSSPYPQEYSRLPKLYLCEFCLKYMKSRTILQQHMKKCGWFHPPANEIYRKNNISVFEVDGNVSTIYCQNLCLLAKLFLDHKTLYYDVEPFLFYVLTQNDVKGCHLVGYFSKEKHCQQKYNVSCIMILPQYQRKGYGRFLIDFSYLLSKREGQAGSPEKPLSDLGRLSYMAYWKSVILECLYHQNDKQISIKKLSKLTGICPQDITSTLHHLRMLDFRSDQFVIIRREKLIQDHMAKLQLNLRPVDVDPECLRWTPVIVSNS
Sequence of KAT-7 (O95251 other isoform, or with tags, fused parts or gaps): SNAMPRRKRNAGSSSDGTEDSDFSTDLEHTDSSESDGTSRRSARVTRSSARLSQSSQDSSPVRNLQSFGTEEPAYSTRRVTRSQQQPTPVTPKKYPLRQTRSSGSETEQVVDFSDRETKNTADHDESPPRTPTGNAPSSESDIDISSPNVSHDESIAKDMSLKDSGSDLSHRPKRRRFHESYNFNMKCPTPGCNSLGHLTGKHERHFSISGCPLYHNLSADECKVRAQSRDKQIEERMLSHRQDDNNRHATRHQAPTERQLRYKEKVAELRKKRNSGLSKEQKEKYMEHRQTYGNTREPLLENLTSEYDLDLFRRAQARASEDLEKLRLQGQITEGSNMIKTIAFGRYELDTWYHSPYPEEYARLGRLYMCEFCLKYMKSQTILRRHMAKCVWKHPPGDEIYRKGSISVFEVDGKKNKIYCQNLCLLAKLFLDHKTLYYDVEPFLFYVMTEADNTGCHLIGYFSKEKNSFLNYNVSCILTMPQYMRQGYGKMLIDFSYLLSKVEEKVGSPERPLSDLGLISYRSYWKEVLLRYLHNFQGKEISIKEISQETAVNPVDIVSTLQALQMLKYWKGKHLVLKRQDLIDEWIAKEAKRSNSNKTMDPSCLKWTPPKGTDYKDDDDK

| pIC50 (KAT-5; Table 6, comparative compounds) | pIC50 (KAT-6A; Table 6, comparative compounds) | pIC50 (KAT-7; Table 6, comparative compounds) | pIC50 (KAT-8; Table 6, comparative compounds) | pIC50 (KAT-5) | pIC50 (KAT-6A) | pIC50 (KAT-7) | pIC50 (KAT-8) | SMILES |
| --- | --- | --- | --- | --- | --- | --- | --- | --- |
| ≥ 5.00 | ≥ 5.00 | 4.30 to 5.00 | < 4.00 | – | – | – | – | Cc1cc(-c2ccccc2)cc(C(=O)NNS(=O)(=O)CC2CCCN(C(=O)OC(C)(C)C)C2)c1F (single isomer, unassigned) [C, reference compound] |
| 4.30 to 5.00 | 4.30 to 5.00 | 4.00 to 4.30 | < 4.00 | – | – | – | – | O=C(NNS(=O)(=O)CC1CCCNC1)c1cc(-c2ccccc2)cc(Cl)c1F (stereo not drawn) [A, reference compound] |
| – | – | – | – | > 5.00 | > 5.00 | > 5.00 | < 4.00 | Cn1cnc(-c2cc(Cl)c(F)c(C(=O)NNS(=O)(=O)CC3CCOCC3)c2)c1 [Compound I-1] |
| – | – | – | – | > 5.00 | > 5.00 | > 5.00 | 4.30 to 5.00 | Cn1cnc(-c2cc(Cl)c(F)c(C(=O)NNS(=O)(=O)C3CCCCC3)c2)c1 [Compound I-2] |
| – | – | – | – | > 5.00 | > 5.00 | > 5.00 | < 4.00 | Cn1cnc(-c2cc(Cl)c(F)c(C(=O)NNS(=O)(=O)C3CCN(C(=O)OC(C)(C)C)CC3)c2)c1 [Compound I-3] |
| – | – | – | – | > 5.00 | > 5.00 | > 5.00 | 4.00 to 4.30 | Cn1ccc(-c2cc(Cl)c(F)c(C(=O)NNS(=O)(=O)CC3CCCCC3)c2)n1 [Compound I-4] |
| – | – | – | – | > 5.00 | > 5.00 | > 5.00 | < 4.00 | O=C(NNS(=O)(=O)CC1CCCCC1)c1cc(-c2ccccn2)cc(Cl)c1F [Compound I-5] |
| – | – | – | – | 4.30 to 5.00 | > 5.00 | 4.30 to 5.00 | < 4.00 | Cn1ccc(-c2cc(Cl)c(F)c(C(=O)NNS(=O)(=O)CC3CCOCC3)c2)n1 [Compound I-6] |
| – | – | – | – | 4.30 to 5.00 | 4.00 to 4.30 | > 5.00 | < 4.00 | Cn1cnc(-c2cc(Cl)c(F)c(C(=O)NNS(=O)(=O)CC3CCCNC3)c2)c1 (stereo not drawn) [Compound I-7] |
| – | – | – | – | < 4.00 | 4.30 to 5.00 | 4.30 to 5.00 | < 4.00 | Cn1cc(-c2cc(Cl)c(F)c(C(=O)NNS(=O)(=O)C3CCOCC3)c2)nc1Cl [Compound I-8] |
| – | – | – | – | 4.30 to 5.00 | 4.30 to 5.00 | > 5.00 | < 4.00 | Cn1cnc(-c2cc(Cl)c(F)c(C(=O)NNS(=O)(=O)C3CCOCC3)c2)c1 [Compound I-9] |
| – | – | – | – | > 5.00 | > 5.00 | > 5.00 | < 4.00 | CC(=O)N1CCCC(CS(=O)(=O)NNC(=O)c2cc(-c3cn(C)cn3)cc(Cl)c2F)C1 (stereo not drawn) [Compound I-10] |
| – | – | – | – | 4.00 to 4.30 | 4.30 to 5.00 | 4.00 to 4.30 | < 4.00 | Cn1c(Cl)nc(-c2cc(Cl)c(F)c(C(=O)NNS(=O)(=O)C3CCOCC3)c2)c1Cl [Compound I-11] |
| – | – | – | – | 4.00 to 4.30 | 4.00 to 4.30 | > 5.00 | < 4.00 | Cn1cnc(-c2cc(Cl)c(F)c(C(=O)NNS(=O)(=O)C3CCC3)c2)c1 [Compound I-12] |
| – | – | – | – | > 5.00 | > 5.00 | > 5.00 | < 4.00 | Cn1cnc(-c2cc(Cl)c(F)c(C(=O)NNS(=O)(=O)CC3CCCN(C(=O)C4CCC4)C3)c2)c1 (stereo not drawn) [Compound I-13] |
| – | – | – | – | 4.00 to 4.30 | < 4.00 | 4.30 to 5.00 | < 4.00 | CC(C)S(=O)(=O)NNC(=O)c1cc(-c2cn(C)cn2)cc(Cl)c1F [Compound I-14] |
| – | – | – | – | 4.30 to 5.00 | 4.00 to 4.30 | > 5.00 | < 4.00 | Cn1cnc(-c2cc(Cl)c(F)c(C(=O)NNS(=O)(=O)C3CCCC3)c2)c1 [Compound I-15] |
| – | – | – | – | 4.30 to 5.00 | < 4.00 | > 5.00 | < 4.00 | Cn1cc(-c2cc(Cl)c(F)c(C(=O)NNS(=O)(=O)CC3CCOCC3)c2)cn1 [Compound I-16] |

| pIC50 (KAT-5; Table 6, comparative compounds) | pIC50 (KAT-6A; Table 6, comparative compounds) | pIC50 (KAT-7; Table 6, comparative compounds) | pIC50 (KAT-8; Table 6, comparative compounds) | pIC50 (KAT-5) | pIC50 (KAT-6A) | pIC50 (KAT-7) | pIC50 (KAT-8) | SMILES |
| --- | --- | --- | --- | --- | --- | --- | --- | --- |
| – | – | – | – | > 5.00 | > 5.00 | > 5.00 | < 4.00 | Cc1ccnc(-c2cc(Cl)c(F)c(C(=O)NNS(=O)(=O)CC3CCOCC3)c2)c1 [Compound I-17] |
| – | – | – | – | < 4.00 | < 4.00 | 4.30 to 5.00 | < 4.00 | Cn1cnc(-c2cc(Cl)c(F)c(C(=O)NNS(=O)(=O)C3CC3)c2)c1 [Compound I-19] |
| – | – | – | – | > 5.00 | > 5.00 | > 5.00 | 4.00 to 4.30 | Cn1cnc(-c2cc(Cl)c(F)c(C(=O)NNS(=O)(=O)CC3CCCC3)c2)c1 [Compound I-20] |
| – | – | – | – | < 4.00 | 4.30 to 5.00 | > 5.00 | < 4.00 | Cn1cnc(-c2cc(Cl)c(F)c(C(=O)NNS(C)(=O)=O)c2)c1 [Compound I-22] |
| – | – | – | – | 4.30 to 5.00 | 4.00 to 4.30 | > 5.00 | < 4.00 | CCS(=O)(=O)NNC(=O)c1cc(-c2cn(C)cn2)cc(Cl)c1F [Compound I-25] |
| – | – | – | – | > 5.00 | 4.30 to 5.00 | > 5.00 | < 4.00 | Cc1nc(-c2cc(Cl)c(F)c(C(=O)NNS(=O)(=O)C3CCCCC3)c2)cn1C [Compound I-26] |
| – | – | – | – | 4.30 to 5.00 | 4.00 to 4.30 | > 5.00 | < 4.00 | Cn1cnc(-c2cc(Cl)c(F)c(C(=O)NNS(=O)(=O)C3CCOC3)c2)c1 (stereo not drawn) [Compound I-27] |
| – | – | – | – | 4.30 to 5.00 | < 4.00 | > 5.00 | < 4.00 | CCn1cnc(-c2cc(Cl)c(F)c(C(=O)NNS(=O)(=O)CC3CCCCC3)c2)c1C [Compound I-28] |
| – | – | – | – | 4.30 to 5.00 | < 4.00 | 4.00 to 4.30 | < 4.00 | Cc1ncc(-c2cc(Cl)c(F)c(C(=O)NNS(=O)(=O)CC3CCCCC3)c2)n1C [Compound I-29] |
| – | – | – | – | < 4.00 | < 4.00 | < 4.00 | < 4.00 | Cc1ncc(-c2cc(Cl)c(F)c(C(=O)NNS(=O)(=O)CC3CCOCC3)c2)n1C [Compound I-30] |
| – | – | – | – | > 5.00 | > 5.00 | > 5.00 | 4.30 to 5.00 | Cn1cnc(-c2cc(Cl)c(F)c(C(=O)NNS(=O)(=O)CC3CCC3)c2)c1 [Compound I-31] |
| – | – | – | – | > 5.00 | > 5.00 | > 5.00 | < 4.00 | Cn1cnc(-c2cc(Cl)c(F)c(C(=O)NNS(=O)(=O)CC3CCCN(C(=O)C4CCOCC4)C3)c2)c1 (stereo not drawn) [Compound I-32] |
| – | – | – | – | 4.30 to 5.00 | 4.30 to 5.00 | > 5.00 | < 4.00 | Cc1nc(-c2cc(Cl)c(F)c(C(=O)NNS(=O)(=O)CC3CCOCC3)c2)cn1C [Compound I-33] |
| – | – | – | – | > 5.00 | > 5.00 | 4.30 to 5.00 | < 4.00 | O=C(NNS(=O)(=O)CC1CCCCC1)c1cc(-n2cccn2)cc(Cl)c1F [Compound I-34] |
| – | – | – | – | > 5.00 | > 5.00 | > 5.00 | 4.30 to 5.00 | COCC(=O)N1CCCC(CS(=O)(=O)NNC(=O)c2cc(-c3cn(C)cn3)cc(Cl)c2F)C1 (stereo not drawn) [Compound I-35] |
| – | – | – | – | 4.30 to 5.00 | > 5.00 | > 5.00 | < 4.00 | Cc1cnn(-c2cc(Cl)c(F)c(C(=O)NNS(=O)(=O)CC3CCOCC3)c2)c1 [Compound I-36] |
| – | – | – | – | 4.00 to 4.30 | 4.30 to 5.00 | 4.30 to 5.00 | < 4.00 | Cc1nc(-c2cc(Cl)c(F)c(C(=O)NNS(=O)(=O)C3CCOCC3)c2)cn1C [Compound I-37] |
| – | – | – | – | < 4.00 | < 4.00 | < 4.00 | < 4.00 | CCn1cnc(C)c1-c1cc(Cl)c(F)c(C(=O)NNS(=O)(=O)CC2CCCCC2)c1 [Compound I-40] |
